One assay addresses T1, type V phosphodiesterase (Homo sapiens, UniProt O76074).
T1 construct: from tissue; host or cells: human peripheral blood granulocyte fraction, soluble, Q Sepharose
Description: Phosphodiesterase inhibition activity (in vitro), Type V. Particulars: 1 μM cGMP. Format: biochemical, human (peripheral blood of a healthy person). An excerpt: (§1) (A) In order to evaluate selectivity of the compounds of the present invention for type IV phosphodiesterase, types I, II, III and V phosphodiesterase isozymes were purified in the following manner.
(§2) 2) Solutions containing various phosphodiesterase isozymes were obtained from the thus obtained soluble fraction in the following manner. The thus, obtained soluble fraction was applied to a column of 1.6×10.0 cm packed with Q Sepharose which had been equilibrated with buffer A. Next, said column was washed with 300 ml of buffer A to remove non-absorbed protein. Phosphodiesterase was eluted with 200 ml of buffer A having 0.05 to 1.25M linear gradient of sodium acetate to collect about 40 fractions each containing 5.0 ml eluate. Each fraction was checked for cAMP- and cGMP-metabolizing phosphodiesterase activities. Of these fractions, a fraction having only cAMP-metabolizing activity and showing disappearance of the metabolizing activity by 0.1 μM cilostamide (a type III phosphodiesterase selective inhibitor) was used as the type III phosphodiesterase. […] These fractions were separately collected to be used as phosphodiesterase (types I, II and III) stock solutions for the examination of selectivity. p1 3) A solution containing type V phosphodiesterase was prepared from peripheral blood of a healthy person in the following manner. A 200 ml portion of physiological saline supplemented with dextran (3%) was added to 500 ml of heparinized peripheral blood and incubated at 37° C. for 40 minutes to effect precipitation of erythrocytes. The supernatant fluid after precipitation of erythrocytes was recovered and centrifuged once, and the resulting precipitate was suspended in buffer B (140 mM NaCl, 5 mM KCl, 5 mm glucose and 10 mM HEPES, pH 7.4), overlaid on a solution for density gradient centrifugation use (Ficoll solution) and then centrifuged at room temperature for 40 minutes at 450×g, thereby separating monocyte fraction and granulocyte fraction. The granulocyte fraction was washed once with buffer C (140 mM NaCl, 5 mM KCl, 1 mM CaCl2, 1 mM MgCl2, 5 mM glucose and 10 mM HEPES, pH 7.4) and suspended in buffer D (20 mM Bis-Tris, 5 mM dithioerythritol, 2 mM EGTA and 50 mM sodium acetate, pH 6.5) containing a protease inhibitor (40 μM leupeptin, 5 μM pepstatin A, 20 μM aprotinin, 50 μM phenyl-methyl-sulfonyl-fluoride or 2 mM benzamidine) and then the cells were disrupted using polytron and sonicator and subjected to ultracentrifugation (4° C., 100,000×g, 60 minutes) to give a soluble fraction.
4) The thus obtained soluble fraction was applied to a column of 1.6×10 cm packed with Q Sepharose which had been equilibrated with buffer D. Next, the column was washed with 120 ml of buffer D to remove non-absorbed protein. Phosphodiesterase was eluted with 300 ml of buffer D having 0.05 to 1.25M linear gradient of sodium acetate to collect fractions each containing 5.0 ml eluate. Each fraction was checked for cAMP- and cGMP-metabolizing phosphodiesterase activities. Fractions having only cGMP metabolizing activity were collected to be used as the type V phosphodiesterase stock solution.
(§3) (B) Inhibitory activities were measured using the thus obtained stock solutions of various phosphodiesterase isozymes.
1) A predetermined amount of each compound to be tested was subjected to 10 minutes of reaction at 30° C. in a reaction mixture containing 40 mM Tris-HCl (pH 8.0), 5 mM MgCl2, 4 mM 2-mercaptoethanol, 10 μM rolipram (a type IV phosphodiesterase selective inhibitor), 1 μM cAMP, 10 nM ^3 H-cAMP (in the case of type V phosphodiesterase, 1 μM cAMP and 10 nM ^3 H-cAMP are replaced by 1 μM cGMP and 100 nM ^3 H-cGMP) and each of the isozyme stock solutions. After completion of the reaction, the reaction mixture was boiled at 90° C. for 1 minute, ice-cooled, mixed with 1 unit of 5'-nucleotidase and then subjected to 10 minutes of reaction at 30° C., and the reaction was stopped by adding 1 ml of methanol. […]

Assay [1] has as its target T2, type II phosphodiesterase (Rattus norvegicus, UniProt Q01062).
T2 construct: purified from rat heart muscle cells; from tissue; host or cells: rat heart, soluble fraction, Q Sepharose
T2 sequence (Q01062 1-928): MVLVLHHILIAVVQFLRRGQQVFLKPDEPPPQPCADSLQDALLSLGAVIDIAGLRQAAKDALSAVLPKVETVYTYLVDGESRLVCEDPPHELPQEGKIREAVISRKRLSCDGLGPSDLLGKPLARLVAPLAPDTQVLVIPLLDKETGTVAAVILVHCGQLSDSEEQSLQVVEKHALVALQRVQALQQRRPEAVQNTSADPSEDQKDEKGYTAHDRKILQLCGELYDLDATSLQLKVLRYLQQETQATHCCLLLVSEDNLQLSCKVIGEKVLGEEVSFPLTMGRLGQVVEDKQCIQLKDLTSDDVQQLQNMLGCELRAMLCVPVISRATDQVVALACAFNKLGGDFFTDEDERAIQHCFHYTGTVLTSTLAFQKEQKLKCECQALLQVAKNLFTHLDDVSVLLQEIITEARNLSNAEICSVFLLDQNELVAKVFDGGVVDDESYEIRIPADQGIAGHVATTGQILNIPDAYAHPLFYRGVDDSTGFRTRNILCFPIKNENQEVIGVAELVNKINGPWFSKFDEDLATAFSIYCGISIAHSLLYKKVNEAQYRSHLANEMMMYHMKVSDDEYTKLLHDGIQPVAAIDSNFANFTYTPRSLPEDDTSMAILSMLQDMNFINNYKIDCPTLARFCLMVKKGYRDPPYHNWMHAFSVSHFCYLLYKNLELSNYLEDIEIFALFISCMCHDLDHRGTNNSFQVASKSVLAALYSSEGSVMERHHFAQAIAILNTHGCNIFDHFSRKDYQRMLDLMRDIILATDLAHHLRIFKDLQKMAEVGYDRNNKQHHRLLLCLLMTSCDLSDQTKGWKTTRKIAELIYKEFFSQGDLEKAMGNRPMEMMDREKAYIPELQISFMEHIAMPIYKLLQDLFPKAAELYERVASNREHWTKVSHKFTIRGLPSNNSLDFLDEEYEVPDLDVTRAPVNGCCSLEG
Description: Phosphodiesterase inhibition activity (in vitro), Type II. Format: biochemical. Particulars: Type II phosphodiesterase column.
Description: as §1
1) Solutions containing various phosphodiesterase (types I, II and III) isozymes were purified from rat heart muscle cells in the following manner. Under ether anesthesia, Wistar rat was subjected to thoracotomy to excise the heart. After removing blood by perfusion with physiological saline supplemented with heparin (1 unit/ml), the heart was finely chopped with scissors. This was suspended in buffer A (20 mM Bis-Tris, 5 mM dithioerythritol, 2 mM EGTA and 50 mM sodium acetate, pH 6.5) containing a protease inhibitor (50 μM phenyl-methyl-sulfonyl-fluoride, 5 μM pepstatin A, 40 μM leupeptin, 20 μM aprotinin or 2 mM benzamidine) and then the cells were disrupted using polytron and sonicator and subjected to ultracentrifugation (4° C., 100,000×g, 60 minutes) to give a soluble fraction.
as §2, §3
1) A predetermined amount of each compound to be tested was subjected to 10 minutes of reaction at 30° C. in a reaction mixture containing 40 mM Tris-HCl (pH 8.0), 5 mM MgCl2, 4 mM 2-mercaptoethanol, 10 μM rolipram (a type IV phosphodiesterase selective inhibitor), 1 μM cAMP, 10 nM ^3 H-cAMP (in the case of type V phosphodiesterase, 1 μM cAMP and 10 nM ^3 H-cAMP are replaced by 1 μM cGMP and 100 nM ^3 H-cGMP) and each of the isozyme stock solutions. […]

This note sets out measurements from US5817670A, “Naphthyridine derivatives and pharmaceutical compositions thereof” (Yamanouchi Pharmaceutical Co., Ltd., priority 1994, dated 1998).

Each structure is given as a SMILES string.

Consider `CCc1cc(C)c2c(-c3cccc(Cl)c3)cc(=O)n(CC)c2n1` [Example 39, 4-(3-Chlorophenyl)-1,7-diethyl-5-methyl-1,8-naphthyridin-2(1H)-one], for which the IC50 was 1.05 µM against type V phosphodiesterase and above 3 µM in assay [1].
